Measured values taken from PubChem BioAssay AID330 (DTP/NCI, 2004).
Several values for one entry are separate records, joined by “and”; a condition that tells them apart may be missing. Identical values can stand only once. Toxic doses and inconclusive results are not listed. The calls were made as follows: active = survival T/C of 150% or more; inactive = T/C below 125% in these data.

Tested on: P388 leukemia ip, CD2F1 mice, survival T/C
Assay: NCI In Vivo Anticancer Drug Screen. Data for tumor model P388 Leukemia (intraperitoneal) in CD2F1 (CDF1) mice
Conditions: endpoint: median survival time, higher = longer survival
Procedure, shortened: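 Mice carrying the transplanted tumor received test compound or vehicle. Survival was recorded in each group, and the value is the treated-group measurement divided by that of the vehicle-treated control group.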

[1] = dose: 50.0 mg/kg/injection, schedule: Q01DX005 (ip), vehicle: saline with Tween-80
[2] = dose: 100.0 mg/kg/injection, schedule: Q01DX005 (ip), vehicle: saline with Tween-80
[3] = dose: 200.0 mg/kg/injection, schedule: Q01DX005 (ip), vehicle: saline with Tween-80
[4] = dose: 60.0 mg/kg/injection, schedule: Q01DX005 (ip), vehicle: Klucel (hydroxypropylcellulose) (HPC)
[5] = dose: 120.0 mg/kg/injection, schedule: Q01DX005 (ip), vehicle: Klucel (hydroxypropylcellulose) (HPC)
[6] = dose: 3.13 mg/kg/injection, schedule: Q01DX009 (ip), vehicle: distilled water + Tween-80
[7] = dose: 6.25 mg/kg/injection, schedule: Q01DX009 (ip), vehicle: distilled water + Tween-80
[8] = dose: 12.5 mg/kg/injection, schedule: Q01DX009 (ip), vehicle: distilled water + Tween-80
[9] = dose: 25.0 mg/kg/injection, schedule: Q01DX009 (ip), vehicle: distilled water + Tween-80
[10] = dose: 25.0 mg/kg/injection, schedule: Q01DX009 (ip), vehicle: saline with Tween-80
[11] = dose: 50.0 mg/kg/injection, schedule: Q01DX009 (ip), vehicle: saline with Tween-80
[12] = dose: 100.0 mg/kg/injection, schedule: Q01DX009 (ip), vehicle: saline with Tween-80
[13] = dose: 200.0 mg/kg/injection, schedule: Q01DX009 (ip), vehicle: saline with Tween-80
[14] = dose: 60.0 mg/kg/injection, schedule: Q01DX005 (ip), vehicle: saline with Tween-80
[15] = dose: 120.0 mg/kg/injection, schedule: Q01DX005 (ip), vehicle: saline with Tween-80
[16] = dose: 240.0 mg/kg/injection, schedule: Q01DX005 (ip), vehicle: saline with Tween-80

Measured: T/C

CCC[CH2][Sn]1([CH2]CCC)[O]C(=O)CCSCCC(=O)[O]1
inactive: dose: 1.56 mg/kg/injection, schedule: Q01DX005 (ip), vehicle: saline with Tween-80 100 % of control and 106 % of control | dose: 3.12 mg/kg/injection, schedule: Q01DX005 (ip), vehicle: saline with Tween-80 109 % of control and 115 % of control and 121 % of control | dose: 6.25 mg/kg/injection, schedule: Q01DX005 (ip), vehicle: saline with Tween-80 107 % of control

CC(=O)NCc1cc([N+](=O)[O-])ccc1O
inactive: [1] 101 % of control | [2] 94 % of control | [3] 99 % of control

S=C(Nc1ccccc1)P(c1ccccc1)c1ccccc1
inactive: dose: 50.0 mg/kg/injection, schedule: Q01DX005 (ip), vehicle: Klucel (hydroxypropylcellulose) (HPC) 111 % of control and 99 % of control | dose: 100.0 mg/kg/injection, schedule: Q01DX005 (ip), vehicle: Klucel (hydroxypropylcellulose) (HPC) 116 % of control and 89 % of control | dose: 200.0 mg/kg/injection, schedule: Q01DX005 (ip), vehicle: Klucel (hydroxypropylcellulose) (HPC) 111 % of control and 89 % of control

CC1(C)CC(=O)N(CN2CCOCC2)C(=O)C1
inactive: dose: 60.0 mg/kg/injection, schedule: Q01DX005 (ip), vehicle: saline 100 % of control | dose: 120.0 mg/kg/injection, schedule: Q01DX005 (ip), vehicle: saline 100 % of control | dose: 240.0 mg/kg/injection, schedule: Q01DX005 (ip), vehicle: saline 110 % of control

CCc1nn(Cc2ccccc2)c2nc(C)c(CCc3ccccc3)c(Cl)c12
inactive: [4] 92 % of control | [5] 91 % of control | dose: 240.0 mg/kg/injection, schedule: Q01DX005 (ip), vehicle: Klucel (hydroxypropylcellulose) (HPC) 94 % of control

Nc1nccc2[nH]ccc12
inactive: dose: 12.5 mg/kg/injection, schedule: Q01DX001 (ip), vehicle: saline 103 % of control | dose: 25.0 mg/kg/injection, schedule: Q01DX001 (ip), vehicle: saline 102 % of control | dose: 50.0 mg/kg/injection, schedule: Q01DX001 (ip), vehicle: saline 112 % of control

O=c1c(Cl)c(Cl)oc(Cl)c1Cl
inactive: [1] 100 % of control | [2] 98 % of control

[O-]c1n[n+](-c2ccccc2)ns1
inactive: [6] 99 % of control and 106 % of control | [7] 99 % of control and 101 % of control and 114 % of control | [8] 100 % of control and 105 % of control and 124 % of control | [9] 99 % of control and 115 % of control and 92 % of control

C/C(=C\C(=O)c1ccccc1)Nc1ccccc1Cl
inactive: dose: 12.5 mg/kg/injection, schedule: Q01DX009 (ip), vehicle: saline 100 % of control | dose: 25.0 mg/kg/injection, schedule: Q01DX009 (ip), vehicle: saline 102 % of control | dose: 50.0 mg/kg/injection, schedule: Q01DX009 (ip), vehicle: saline 89 % of control

CCn1c(=O)[nH]c(=O)c2conc21
inactive: [10] 95 % of control | [11] 104 % of control | [12] 96 % of control

CN1C(=O)C/C(=C\N2CCCCC2)C1=O
inactive: [1] 98 % of control | [2] 102 % of control

CCCC[As](CCCC)SC1OC(C2COC(C)(C)O2)C2OC(C)(C)OC12 (stereo not drawn)
inactive: dose: 0.78 mg/kg/injection, schedule: Q01DX009 (ip), vehicle: water 101 % of control | dose: 1.56 mg/kg/injection, schedule: Q01DX009 (ip), vehicle: water 117 % of control | [6] 122 % of control | dose: 3.13 mg/kg/injection, schedule: Q01DX009 (ip), vehicle: water 101 % of control | [7] 96 % of control | dose: 6.25 mg/kg/injection, schedule: Q01DX009 (ip), vehicle: water 111 % of control | [8] 123 % of control | [9] 88 % of control

CCN1CCC(O)(/C=C/c2ccccc2)C(C(=O)/C=C/c2ccccc2)C1 (stereo not drawn)
inactive: [4] 108 % of control | [5] 111 % of control

CCN(CC)CCN1C(=O)CN=C(c2ccccn2)c2cc(Cl)ccc21
inactive: [11] 100 % of control | [12] 95 % of control | [13] 100 % of control

O=C1OCC/C1=C/OC(=O)c1ccccc1
inactive: [14] 93 % of control | [15] 99 % of control | [16] 106 % of control

COc1cc2c(cc1C1CCCCCc3c1[nH]c1ccccc31)C1CCCCC1N2C (stereo not drawn)
inactive: dose: 12.5 mg/kg/injection, schedule: Q01DX001 (ip), vehicle: distilled water + Tween-80 100 % of control | dose: 25.0 mg/kg/injection, schedule: Q01DX001 (ip), vehicle: distilled water + Tween-80 100 % of control | dose: 50.0 mg/kg/injection, schedule: Q01DX001 (ip), vehicle: distilled water + Tween-80 100 % of control | dose: 100.0 mg/kg/injection, schedule: Q01DX001 (ip), vehicle: distilled water + Tween-80 95 % of control | dose: 200.0 mg/kg/injection, schedule: Q01DX001 (ip), vehicle: distilled water + Tween-80 91 % of control

[Se]c1nc(N2CCOCC2)ncc1-c1ccccc1
inactive: dose: 6.25 mg/kg/injection, schedule: Q01DX009 (ip), vehicle: saline with Tween-80 100 % of control | dose: 12.5 mg/kg/injection, schedule: Q01DX009 (ip), vehicle: saline with Tween-80 95 % of control | [10] 95 % of control | [13] 92 % of control

O=C(CCN1CCCC1)Nc1nc(-c2ccc(Cl)cc2)cs1
inactive: [1] 102 % of control | [2] 93 % of control | [3] 94 % of control

O=C1CC2(C(=O)N1CN1CCOCC1)c1ccccc1-c1ccccc12
inactive: dose: 50.0 mg/kg/injection, schedule: Q04DX002 (ip), vehicle: Klucel (hydroxypropylcellulose) (HPC) 109 % of control | dose: 100.0 mg/kg/injection, schedule: Q04DX002 (ip), vehicle: Klucel (hydroxypropylcellulose) (HPC) 99 % of control and 108 % of control | dose: 200.0 mg/kg/injection, schedule: Q04DX002 (ip), vehicle: Klucel (hydroxypropylcellulose) (HPC) 111 % of control

COC(=O)N1C(C)=Cc2ccccc2C1C#N (stereo not drawn)
inactive: dose: 50.0 mg/kg/injection, schedule: Q01DX009 (ip), vehicle: suspension in saline 100 % of control | dose: 100.0 mg/kg/injection, schedule: Q01DX009 (ip), vehicle: suspension in saline 98 % of control | dose: 200.0 mg/kg/injection, schedule: Q01DX009 (ip), vehicle: suspension in saline 95 % of control

COC(=O)C1=CO[C@@H](OC2OC(CO)C(O)C(O)C2O)[C@H]2[C@@H]1C=C[C@@]21C=C([C@H](C)OC(=O)/C=C/c2ccc(OC3OC(CO)C(O)C(O)C3O)cc2)C(=O)O1 (stereo partly drawn)
inactive: dose: 56.0 mg/kg/injection, schedule: Q01DX005 (ip), vehicle: water 105 % of control | dose: 112.0 mg/kg/injection, schedule: Q01DX005 (ip), vehicle: water 105 % of control | dose: 225.0 mg/kg/injection, schedule: Q01DX005 (ip), vehicle: water 104 % of control

[Cu+2].[Cu+2].c1ccc2c(c1)-c1nc-2nc2[n-]c(nc3nc(nc4[n-]c(n1)c1ccccc41)-c1ccccc1-3)c1cc3c4nc5nc(nc6[n-]c(nc7nc(nc([n-]4)c3cc21)-c1ccccc1-7)c1ccccc61)-c1ccccc1-5
inactive: [14] 100 % of control | [15] 89 % of control | [16] 95 % of control

c1ccc(Nc2nnc3nc(-c4ccccc4)c(-c4ccccc4)nn23)cc1
inactive: [1] 91 % of control | [2] 90 % of control | [3] 102 % of control

CCN(CC)[P+](c1cc(OC)ccc1OC)(N(CC)CC)N(CC)CC
inactive: dose: 1.56 mg/kg/injection, schedule: Q01DX009 (ip), vehicle: Klucel (hydroxypropylcellulose) (HPC) 121 % of control | dose: 3.13 mg/kg/injection, schedule: Q01DX009 (ip), vehicle: Klucel (hydroxypropylcellulose) (HPC) 106 % of control | dose: 25.0 mg/kg/injection, schedule: Q01DX009 (ip), vehicle: Klucel (hydroxypropylcellulose) (HPC) 91 % of control
